As a reminder, the inhibition in vivo is the relative decrease from the control value, in per cent. By pIC50 is commonly meant −log10 of the IC50, conventionally taken in molar units. A low value points to a large IC50.

pIC50: −log10 of the molar value. Active and inactive are the calls of the source. No cut-off for these calls is given here. Bounds are passed on as bounds.

This is an account of results in ChEMBL document CHEMBL1938264, “Novel 3,4-isoxazolediamides as potent inhibitors of chaperone heat shock protein 90” (J Med Chem, 2011).

One data set has as its system A-431. The experiment in a line: Antitumor activity against human A431 cells xenografted in CD1 Harlan mouse assessed as tumor volume inhibition at 60 mg/kg, ip qd administered for 5 days. To be noted: A-431, ip, 120 h, route intraperitoneal. The class given is functional.
Data set [1] has as its system Mus musculus. Kind of data set: Toxicity in human A431 cells xenografted CD1 Harlan mouse assessed as body weight loss at 60 mg/kg, ip qd administered for 5 days. The class given is organism-based, A-431. More on the design: dose 60 mg/kg, route intraperitoneal. The note with it: in vivo, 120 h.
Data set [2] relates to Mus musculus. Kind of data set: Degradation of EGFR in human A431 cells xenografted in CD1 Harlan mouse at 60 mg/kg, ip qd administered for 5 days measured 2 hrs post-last dose by Western blot analysis. The data set is classed as functional, organism-based. Details: dose 60 mg/kg. To be noted: A-431. In general terms: Xenograft models place foreign cells or tissue in a host animal.

Data set [3] relates to Mus musculus. Kind of data set: Degradation of Akt in human A431 cells xenografted in CD1 Harlan mouse at 60 mg/kg, ip qd administered for 5 days measured 2 hrs post-last dose by Western blot analysis. The class given is functional, organism-based. Details: dose 60 mg/kg. The note with it: A-431.
Data set [4] relates to Mus musculus. The experiment in a line: Degradation of CDK4 in human A431 cells xenografted in CD1 Harlan mouse at 60 mg/kg, ip qd administered for 5 days measured 2 hrs post-last dose by Western blot analysis. The data set is classed as functional, organism-based. Details: dose 60 mg/kg. The note with it: A-431.
Data set [5] relates to Mus musculus. Kind of data set: Increase of Hsp70 expression in human A431 cells xenografted in CD1 Harlan mouse at 60 mg/kg, ip qd administered for 5 days measured 2 hrs post-last dose by Western blot analysis. The class given is functional, organism-based. More on the design: dose 60 mg/kg. The note with it: A-431.
Data set [6] is described as follows: Toxicity in human A431 cells xenografted ip dosed CD1 Harlan mouse. The data set is classed as organism-based, A-431. To be noted: in vivo.
The subject of another data set is NCI-H460. Kind of data set: Cytotoxicity against human NCI-H460 after 72 hrs by sulforhodamine B assay. The data set is classed as functional, cell-based. The note with it: NCI-H460, 72 h.
For data set [7], the target named is T1, Heat shock protein HSP 90-beta (Homo sapiens, UniProt P08238). The experiment in a line: Binding affinity to Hsp90 after 4 hrs by fluorescence polarization assay.
T1 sequence (P08238 whole entry): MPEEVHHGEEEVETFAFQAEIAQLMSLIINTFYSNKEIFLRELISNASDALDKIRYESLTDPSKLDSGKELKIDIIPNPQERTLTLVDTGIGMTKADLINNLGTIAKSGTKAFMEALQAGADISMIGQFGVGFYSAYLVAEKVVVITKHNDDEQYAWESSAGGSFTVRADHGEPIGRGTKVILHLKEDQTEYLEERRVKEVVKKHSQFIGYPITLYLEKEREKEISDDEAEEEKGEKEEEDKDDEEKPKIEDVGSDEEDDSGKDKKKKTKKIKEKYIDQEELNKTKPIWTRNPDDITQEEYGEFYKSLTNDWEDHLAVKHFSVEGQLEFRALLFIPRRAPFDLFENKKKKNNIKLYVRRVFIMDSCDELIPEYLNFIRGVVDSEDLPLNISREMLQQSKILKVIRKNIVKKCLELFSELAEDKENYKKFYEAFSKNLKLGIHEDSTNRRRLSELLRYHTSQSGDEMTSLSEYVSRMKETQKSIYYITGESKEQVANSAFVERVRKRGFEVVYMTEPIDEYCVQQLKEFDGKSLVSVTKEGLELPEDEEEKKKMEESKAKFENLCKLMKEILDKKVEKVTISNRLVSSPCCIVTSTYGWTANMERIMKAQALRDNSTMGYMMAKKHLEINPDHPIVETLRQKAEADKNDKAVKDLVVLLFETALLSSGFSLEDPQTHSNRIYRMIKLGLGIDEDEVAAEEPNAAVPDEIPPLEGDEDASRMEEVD
Data set [8] addresses T1, Heat shock protein HSP 90-beta. Kind of data set: Inhibition of Hsp90 in human A431 cells assessed as reduction in Akt protein expression after 24 hrs by Western blot analysis. The class given is cell-based. The note with it: A-431.
Data set [9] shares this target. Kind of data set: Inhibition of Hsp90 in human A431 cells assessed as reduction in EGFR protein expression after 24 hrs by Western blot analysis. The data set is classed as cell-based. The note with it: A-431. Background: Immunoblotting shows a protein as a band on a membrane.
The target is the same in data set [10]. Kind of data set: Inhibition of Hsp90 in human A431 cells assessed as reduction in CDK4 protein expression after 24 hrs by Western blot analysis. The data set is classed as cell-based. The note with it: A-431.
Data set [11] has the same target. Kind of data set: Inhibition of Hsp90 in human A431 cells assessed as increase in Hsp70 protein expression at 0.075 to 1.2 uM after 24 hrs by Western blot analysis. To be noted: A-431. The class given is cell-based.
The target is the same in data set [12]. Kind of data set: Inhibition of Hsp90 in human A431 cells assessed as increase in Hsp70 protein expression at 0.00493 to 1.2 uM after 24 hrs by Western blot analysis. The class given is cell-based. The note with it: A-431.
Data set [13] shares this target. Kind of data set: Inhibition of Hsp90 in human A431 cells assessed as increase in Hsp70 protein expression at 0.11 to 0.8 uM after 24 hrs by Western blot analysis. The data set is classed as cell-based. To be noted: A-431.
The target is the same in data set [14]. The experiment in a line: Inhibition of Hsp90 in human A431 cells assessed as increase in Hsp70 protein expression at 0.0031 to 0.8 uM after 24 hrs by Western blot analysis. The data set is classed as cell-based. To be noted: A-431.
Data set [15] shares this target. The experiment in a line: Inhibition of Hsp90 in human A431 cells assessed as increase in Hsp70 protein expression at 0.01 to 0.814 uM after 24 hrs by Western blot analysis. The class given is cell-based. The note with it: A-431.
Data set [16] shares this target. Kind of data set: Inhibition of Hsp90 in human A431 cells assessed as increase in Hsp70 protein expression at 0.011 to 0.9 uM after 24 hrs by Western blot analysis. The class given is cell-based. The note with it: A-431.

In the case of `CCNC(=O)c1noc(-c2cc(C(C)C)c(O)cc2O)c1NC(=O)c1cc(CN2CCOCC2)on1`, the inhibition in vivo at 60 mg/kg in the data set with A-431 is 48%. Further, the Activity in the data set on Mus musculus [1] was found to be 7%. The result in the data set with Mus musculus [2], in the data set on Mus musculus [3], in the data set with Mus musculus [4] and in the data set on Mus musculus [5] was Active. Also, in [6], the MTD worked out at 60 mg/kg. Besides, the pIC50 in the data set with NCI-H460 is 6.70; in [7] it was 7.40.
`CCNC(=O)c1noc(-c2cc(C(C)C)c(O)cc2O)c1NC(=O)c1ccc(CN2CCOCC2)cc1`: the inhibition entry in data set [8], in data set [9] and in [10] was “Dose-dependent effect” in each case. The inhibition in vivo at 60 mg/kg with A-431 was 33%. Further, in the data set with Mus musculus [1], the Activity stood at 2%. The compound also showed an MTD in data set [6] of 60 mg/kg. In addition, the negative-log IC50 (pIC50) in the data set on NCI-H460 was 7.02; in [7], 7.15. Further, the inhibition result in [11] is “Active”.
Take `CCNC(=O)c1noc(-c2cc(C(C)C)c(O)cc2O)c1NC(=O)C1CCCCC1`: the inhibition result in data set [8], in data set [9] and in data set [10] was “Dose-dependent effect” throughout. In addition, the pIC50 is 7.80 with NCI-H460 and 6.72 in data set [7]. In addition, in [12], the inhibition result was “Active”.
As to `CCNC(=O)c1noc(-c2cc(C(C)C)c(O)cc2O)c1NC(=O)c1sccc1C`, the inhibition result in data set [8], in [9] and in data set [10] was “Dose-dependent effect” in each case. Moreover, in data set [13], the inhibition entry was “Active”. Besides, the pIC50 is 7.77 with NCI-H460 and 7.08 in data set [7].
Take `CCNC(=O)c1noc(-c2cc(C(C)C)c(O)cc2O)c1NC(=O)C(C)(C)C`: the inhibition entry in data set [8], in data set [9] and in data set [10] was “Dose-dependent effect” throughout. Besides, the pIC50 is 7.62 in the data set on NCI-H460 and 7.39 in [7]. For the same compound, the inhibition entry in data set [14] was “Active”.
Consider `CCNC(=O)c1noc(-c2cc(C(C)C)c(O)cc2O)c1-c1ccc(CN2CCOCC2)cc1` [LUMINESPIB], for which the inhibition in vivo at 60 mg/kg in the data set with A-431 amounted to 48%. The Activity with Mus musculus [1] is listed as 8%. This compound also showed an MTD in data set [6] of 60 mg/kg. The pIC50 in the data set with NCI-H460 was 8.62.
In the case of `CCNC(=O)c1noc(-c2cc(C(C)C)c(O)cc2O)c1NC(=O)c1cc(CC)on1`, the inhibition result in [8], in data set [9] and in data set [10] was “Dose-dependent effect” throughout. In addition, the inhibition result in [15] is “Active”. For the same compound, the pIC50 in the data set with NCI-H460 is 7.66; in data set [7] it was 7.70.
Consider `CCNC(=O)c1noc(-c2cc(C(C)C)c(O)cc2O)c1NC(=O)[C@H]1CC[C@@H](OC)CC1`, for which the inhibition entry in data set [8], in data set [9] and in [10] was “Dose-dependent effect” in each case. Moreover, the results for the pIC50 (in the data set with NCI-H460; in data set [7]) were 7.89 and 7.62, respectively. The inhibition entry in [16] is “Active”.
For the compound `CCNC(=O)c1noc(-c2cc(C(C)C)c(O)cc2O)c1NC(=O)[C@H]1CC[C@H](N2CCOCC2)CC1`, the pIC50 with NCI-H460 is 6.17; in data set [7], > 8.30.
In the same order, the values of `CCNC(=O)c1noc(-c2cc(Cl)c(O)cc2O)c1NC1CCN(C)CC1` are < 6.00 and 5.80.
The like results for `CCNC(=O)c1noc(-c2cc(C(C)C)c(O)cc2O)c1NC(=O)[C@H]1CC[C@H](CNS(=O)(=O)c2ccc(F)cc2)CC1` were, in that order, 6.19 and 8.27.
In the same order, the values of `CCNC(=O)c1noc(-c2cc(C(C)C)c(O)cc2O)c1NC(=O)[C@H]1CC[C@H](CNC)CC1` are < 6.00 and 8.07.
For the compound `CCNC(=O)c1noc(-c2cc(C(C)C)c(O)cc2O)c1NC(=O)[C@H]1CC[C@@H](O)CC1`, the pIC50 in the data set on NCI-H460 was 6.30; in [7], > 8.30.
For the compound `COc1ccc(C(=O)Nc2c(C(=O)N3CC(F)(F)C3)noc2-c2cc(Cl)c(O)cc2O)cc1`, the negative-log IC50 (pIC50) is < 6.00 in the data set on NCI-H460 and < 4.00 in [7].
The like results for `CCNC(=O)c1noc(-c2cc(C(C)C)c(O)cc2O)c1NC(=O)c1sc(C)nc1C` were, in that order, 6.25 and 8.00.
